Patent US20160038482A1 (CHANRX CORPORATION, priority 2013, published 2016)
Where two headings read alike, the source gives them in different places.

How the values were obtained:
[1] = tested on: recent onset symptomatic AF/AFL; assay: Example 6: conversion of recent onset AF/AFL, placebo-controlled double-blind; format: in vivo, human; conditions: for Conversion of Atrial Flutter, Conversion, %: pure atrial flutter N=4, any time within 24 hours; for conversion: all doses
Procedure: The vanoxerine or identical appearing placebo was randomly assigned and administered in a double-blinded fashion. Definition of “pure” atrial flutter: only Atrial Flutter (no AF) seen at -30, -15, and 0 time points. Conversion at any time within 24 hours.

[2] = Example 4: daily doses for 14 days in healthy patients; format: in vivo, human
Procedure: A standardized meal was served 15 minutes prior to each dosing.

[3] = Example 1: plasma concentrations of vanoxerine and metabolites after a 300 mg dose; format: in vivo, human; conditions: low concentration group, any time point
Procedure: Each patient gave samples before administration of their dose, and then again at nine further time points, 30 minutes after administration, 1, 2, 3, 4, 6, 8, 12, and 24 hours post administration.

cardiac arrhythmia = format: in vivo, human; conditions: second patient, supraventricular tachycardia, 2 x 200 mg, after first dose
[4] = healthy subjects, cited from earlier work
[5] = Example 6: adverse events; format: in vivo, human
From the text: The vanoxerine or identical appearing placebo was randomly assigned and administered in a double-blinded fashion.

[6] = pharmacokinetic parameters from tests in dogs; format: in vivo; conditions: dog, plasma
From the text: Vanoxerine is primarily eliminated from the body in urine, bile, and feces. Indeed, a substantial amount of the drug is expelled, unabsorbed into the feces. […] However, the long half-life of the drug may actually be utilized to minimize the continuous or regular dosing of the drug.

[7] = Example 5: daily doses for 7 days; format: in vivo, human
[8] = Example 3: daily doses for 11 consecutive days, PK and hemodynamics; format: in vivo, human; conditions: for half-life / Cmax: human, plasma, 11 days; for half-life: read-out: PK Data (Mean +/− SD) T1/2 (converted); for Cmax: read-out: PK Data (Mean +/− SD) CMax
[9] = multiple daily dosing: hemodynamic effects; format: in vivo, human
From the text: However, control and prevention of events of cardiac arrhythmia are important to these patients to prevent future re-occurrences and the deleterious effects and morbidity.

Fc1ccc(C(OCCN2CCN(CCCc3ccccc3)CC2)c2ccc(F)cc2)cc1 [Vanoxerine, 1-[2-[bis(4-fluorophenyl)methoxy]ethyl]-4-(3-phenylpropyl)piperazine]
Percent conversion ([1]; 200 mg (22), 0-4 hr): 18% | Percent conversion ([1]; 200 mg (22), 0-8 hr): 45% | Percent conversion ([1]; 200 mg (22), 0-24 hr): 59% | improvement of conversion (percent increase in conversion over placebo) ([1]; 200 mg, 0-4 hours): 38% | improvement of conversion (percent increase in conversion over placebo) ([1]; 200 mg, 0-8 hours): 96% | improvement of conversion (percent increase in conversion over placebo) ([1]; 200 mg, 0-24 hours): 55% | Conversion of Atrial Flutter, Conversion, % ([1]; 200 mg): 50% | Percent conversion ([1]; 300 mg (25), 0-4 hr): 40% | Percent conversion ([1]; 300 mg (25), 0-8 hr): 52% | Percent conversion ([1]; 300 mg (25), 0-24 hr): 64% | improvement of conversion (percent increase in conversion over placebo) ([1]; 300 mg, 0-4 hours): 207% | improvement of conversion (percent increase in conversion over placebo) ([1]; 300 mg, 0-8 hours): 126% | improvement of conversion (percent increase in conversion over placebo) ([1]; 300 mg, 0-24 hours): 68% | Conversion of Atrial Flutter, Conversion, % ([1]; 300 mg): 75% | Percent conversion ([1]; 400 mg (25), 0-4 hr): 52% | Percent conversion ([1]; 400 mg (25), 0-8 hr): 76% | Percent conversion ([1]; 400 mg (25), 0-24 hr): 84% | improvement of conversion (percent increase in conversion over placebo) ([1]; 400 mg, 0-4 hours): 300% | improvement of conversion (percent increase in conversion over placebo) ([1]; 400 mg, 0-8 hours): 230% | improvement of conversion (percent increase in conversion over placebo) ([1]; 400 mg, 0-24 hours): 121% | Conversion of Atrial Flutter, Conversion, % ([1]; 400 mg): 75% | conversion ([1]; at 12 hours): greater than 50% | conversion ([1]; at about 7 hours): greater than 40% | conversion ([1]; at about 16 hours): ~60% | conversion to sinus rhythm of recent onset symptomatic AF/AFL, dose dependence ([1]; doses of 200, 300 and 400 mg): highly statistically significant dose dependent increase | time to steady state serum levels ([2]; 25, 75, and 125 mg daily for 14 days): 9 to 11 days | adverse events ([2]; 25, 75, and 125 mg daily for 14 days, healthy patients, after standardized meal): No significant adverse events | steady state serum levels, dose proportionality ([2]; higher doses compared with the lower doses): disproportionately and statistically greater levels at higher doses | plasma levels (highest reached) [3]: ~40 ng/mL | time of conversion to normal sinus rhythm (cardiac arrhythmia): about 6 hours | side-effects ([4]; daily repetitive dose of 50 mg): no side-effects should be expected | side-effects ([4]; higher doses): concentration difficulties, increase systolic blood pressure, asthenia, and a feeling of drug influence | Adverse events: number of AEs reported ([5]; 200 mg (22)): 8 AEs | Adverse events: number of SAEs ([5]; 200 mg (22)): 1 SAE | Adverse events: subjects reporting, N (%) ([5]; 200 mg (22)): 4 (18%) subjects | Adverse events: number of AEs reported ([5]; 300 mg (25)): 12 AEs | Adverse events: subjects reporting, N (%) ([5]; 300 mg (25)): 7 (28%) subjects | Adverse events: number of AEs reported ([5]; 400 mg (25)): 23 AEs | Adverse events: number of SAEs ([5]; 400 mg (25)): 1 SAE | Adverse events: subjects reporting, N (%) ([5]; 400 mg (25)): 10 (40%) subjects | 1:1 AFL post dose ([5]; 200, 300 and 400 mg): No 1:1 AFL seen post dose in any subject | proarrhythmia ([5]; 200, 300 and 400 mg): absence of proarrhythmia | tolerability ([5]; 200, 300 and 400 mg): well tolerated at all doses | Tmax ([6]; oral): ~3 h | bioavailability ([6]; oral, read-out: systemic bioavailability): 23% | half-life ([6]; read-out: T1/2 (elimination from the plasma) (converted)): 22 h | systolic blood pressure and heart rate ([7]; 100 mg daily for 7 days): increases in systolic blood pressure and heart rate were seen | systolic blood pressure and heart rate ([7]; 150 mg daily for 7 days): increases in systolic blood pressure and in heart rate | time to steady state levels ([7]; 50, 100, and 150 mg daily, all patients): within one week | plasma levels detectability ([8]; 25 mg daily): not detectable after 8 hours | plasma levels detectability ([8]; 50, 75, and 100 mg daily): detectable at 24 hours | time to steady state ([8]; 50, 75, and 100 mg daily): ≤ 8 days | heart rate and systolic blood pressure ([8]; 75 and 100 mg daily doses): increased slightly in most subjects | PK linearity ([8]; across 50, 75 and 100 mg doses): linear and dose proportional | half-life ([8]; 50 mg daily): 49.4 h | Cmax ([8]; 75 mg daily): 27.4 ng/mL | half-life ([8]; 75 mg daily): 52.5 h | Cmax ([8]; 100 mg daily): 40.2 ng/mL | half-life ([8]; 100 mg daily): 15.4 h | Cmax, ss, and AUC0-24ss inter-subject variability ([8]; steady state): 55-85% | half-life of the drug ([8]; when daily doses are given): increased half-life | heart rate and systolic blood pressure ([9]; daily use over 7, 10, and 14 days, 75, 100, 125, and 150 mg a day): increased heart rate and systolic blood pressure | heart rate and systolic blood pressure ([9]; multiple dosing, several subjects): dose-related increases in heart rate and systolic blood pressure
